Tested on: Huh7.5 cells
Test: Supernatant infectivity titer, focus forming unit (FFU) method on Huh7.5 cells
Type: cell-based, human
Procedure: To determine the efficiency of the developed system, HCV RNA titers are determined in IU/ml (international units/ml) with Taq-Man Real-Time-PCR and infectious titers are determined with a focus-forming units (FFU) method: in this method, infectivity titers are determined by infection of cell culture replicates with serial dilutions of virus containing supernatants and, following immuno-stainings for HCV antigens, counting of HCV-antigen positive cell foci. Alternatively the infectious titers are determined as 50% tissue culture infectious dose.
Viral spread was monitored by HCV Core and NS5A immunostainings with mouse anti-HCV core protein monoclonal antibody (B2) (Anogen, Yes Biotech Laboratories) or anti-NS5A, 9E10, respectively, as described in the following section. For reporter viruses tagged with fluorescent reporter gene, viral spread was also monitored by direct visualization of the reporter gene by fluorescence microscopy. For reporter viruses tagged with hRLuc reporter gene, viral spread was also monitored by luminescence-based assay as described below. Supernatant infectivity titers were determined as 50% tissue culture infectious dose (TCID50)/mL or as focus forming units (FFU)/mL, as described in the following section. Supernatant HCV RNA titers were measured by a 5′ UTR based Real Time RT-PCR as described below.
Viral infectivity titers were determined by the tissue culture infectious dose 50 (TCID50) or focus forming unit method. 6×10^3/well naive Huh7.5 cells were plated out in a poly-D-lysine coated 96-well plate (Nunc) the day before infection. Cells were then incubated with 10-fold dilutions of cell culture supernatants. For TCID50 determinations, 6 replicates per dilution were incubated for 2-3 days. For FFU determinations, wells were incubated for 48 rs. After incubation, cells were permeabilized for 5′ with cold methanol. After washing 1× with PBS and 1× with PBS/Tween-20, blocking was carried out for 20′ with sterile filtered 1% BSA/0.2% skim milk in PBS followed by a 5′ blocking of endogenous peroxidase activity using 3% H2O2. Cells were washed as above and incubated with a 1:200 dilution of 1° Ab α-NS5A (9E10) in PBS/0.1% tween-20 over night at 4° C. After washing, a 1:300 dilution of 2° Ab HRP-goat anti-mouse IgG (H+L) (Amersham Biosciences) in PBS/0.1% tween-20 was added and incubated for 30′ at room temperature. Staining was developed using DAB substrate kit (DAKO) for 30′ after washing. In TCID50 determinations, wells were scored positive if one or more cells were infected, and the TCID50 was calculated according to the Reed and Muench method. TCID50 values are derived from single or multiple determinations as indicated. FFU determinations are based on counts of wells with 5-100 FFU and three independent virus dilutions with one replicate each. Counts were obtained by counting FFU by eye or by using automated counting on an ImmunoSpot Series 5 UV Analyzer (CTL Europe GmbH) with customized software kindly provided by CTL. From FFU counts in experimental wells, the mean of spot counts of at least 6 negative control wells was subtracted (˜usually 3 to 15 spots).

[1] = day 5 post transfection, Huh7.5
[2] = day 8 post transfection, Huh7.5

Substance | Infectivity titer of transfection supernatant Log10 (FFU/mL) [1] | Infectivity titer of transfection supernatant Log10 (FFU/mL) [2] | Infectivity titer of transfection supernatant Log10 (FFU/mL) (day 5 post transfection, * another, independent transfection experiment) | Infectivity titer of transfection supernatant Log10 (FFU/mL) (day 7 post transfection, * another, independent transfection experiment)
S52^5′UTR/J8^C-NS2/JFH1: 2b Core-NS2 recombinant with heterotypic 3a (S52) 5′UTR | 3.08 Log10 (FFU/mL) | 2.10 Log10 (FFU/mL) |  | 
J4^5′UTR-NS2/JFH1T2997C, A4828T: 1b Core-NS2 recombinant with homotypic 1b (J4) 5′UTR | 2.47 Log10 (FFU/mL) | 2.07 Log10 (FFU/mL) |  | 
J8^5′UTR-NS2/JFH1: 2b Core-NS2 recombinant with homotypic 2b (J8) 5′UTR | 3.94 Log10 (FFU/mL) | 3.75 Log10 (FFU/mL) |  | 
H77^5′UTR/S52^C-NS2/JFH1T2719G, A4551C: 3a Core-NS2 recombinant with heterotypic 1a (H77) 5′UTR | 4.07 Log10 (FFU/mL) | 4.22 Log10 (FFU/mL) |  | 
HK6a^5′UTR-NS2/JFH1T1391C, A1592C: 6a Core-NS2 recombinant with homotypic 6a (HK6a) 5′UTR |  |  | 4.57 Log10 (FFU/mL) | 4.39 Log10 (FFU/mL)
H77^5′UTR/J8^C-NS2/JFH1: 2b Core-NS2 recombinant with heterotypic 1a (H77) 5′UTR | 3.41 Log10 (FFU/mL) | 2.58 Log10 (FFU/mL) |  | 
S52^5′UTR/J4^C-NS2/JFH1T2995C, A4826T: 1b Core-NS2 recombinant with heterotypic 3a (S52) 5′UTR | 2.03 Log10 (FFU/mL) | 1.67 Log10 (FFU/mL) |  | 
S52^5′UTR-NS2/JFH1T2717G, A4549C: 3a Core-NS2 recombinant with homotypic 3a (S52) 5′UTR | 4.57 Log10 (FFU/mL) | 4.53 Log10 (FFU/mL) |  | 
H77^5′UTR/HK6a^C-NS2/JFH1T1390C, A1591C: 6a Core-NS2 recombinant with heterotypic 1a (H77) 5′UTR | 3.60 Log10 (FFU/mL) | 3.23 Log10 (FFU/mL) |  | 
H77^5′UTR/J4^C-NS2/JFH1T2997C, A4828T: 1b Core-NS2 recombinant with heterotypic 1a (H77) 5′UTR | 3.32 Log10 (FFU/mL) | 2.49 Log10 (FFU/mL) |  | 
S52^5′UTR/HK6a^C-NS2/JFH1T1388C, A1589C: 6a Core-NS2 recombinant with heterotypic 3a (S52) 5′UTR | 3.29 Log10 (FFU/mL) | 3.15 Log10 (FFU/mL) |  | 

— patent US8772022B2, “Hepatitis C virus expressing reporter tagged NS5A protein” (Hvidovre Hospital, priority 2008, dated 2014)
